Experimental data from patent US10583206B2, “Radioactive probe for detecting hydrogen sulfide” (KYUNGPOOK NATIONAL UNIVERSITY INDUSTRY-ACADEMIC COOPERATION …, priority 2015, dated 2020).

Assays:
[1] = Hydrogen sulfide selectivity test: decomplexation by ATB 337; format: physicochemical; conditions: ATB 337 (100 μM); 37° C. for 15 minutes
Method: (§1) In addition to hydrogen sulfide, many different anions, radicals, etc. exist in the body. Therefore, to examine selective reactivity of the ^64Cu-labeled complex compound according to the present disclosure for sulfide ions, the following experiment was performed.
(§2) About 45 μCi-55 μCi of the ^64Cu-labeled complex compound (250 μL of triple distilled water) was mixed with 100 μM of various anion solutions (250 μL of triple distilled water) including biothiol, and stirred at 37° C. for 15 minutes.
(§3) Formation of copper sulfide (^64CuS) was quantified by using a radio-TLC scanner.
(§4) Various biothiol or salt solutions were prepared by dissolving the compounds in triple distilled water.
(§5) In Table, concentrations of all biothiols and other competitive materials are 100 μM. Further, specific concentrations of biothiols, anions, and oxidants used in Table are as follows: [L-Cys (1 mM); L-Hcys (10 mM); GSH (10 mM); DL-dithiothretitol (DTT, 100 μM); L-ascorbic acid (L-AsA, 10 mM); 2-mercaptoethanol (2-ME, 10 mM); NaCl (10 mm); KI (1 mM); Na2S2O3 (1 mM); Na2S2O5 (1 mM); NaOAc (1 mM); H2O2 ([…]); NaClO4 (100 μM); NaHCO3 (100 μM); NaNO2 ([…]); NaN3 (100 μM); ATB 337 (100 μM); diallyl trisulphide (100 μM)].

[2] = Hydrogen sulfide selectivity test: decomplexation by H2O2; format: physicochemical; conditions: H2O2 (100 µM); 37° C. for 15 minutes
Method: as §1, §2, §3, §4, §5

[3] = Hydrogen sulfide selectivity test: decomplexation by NaCl; format: physicochemical; conditions: 100 μM or NaCl (10 mm), 37° C. for 15 minutes
Method: as §1, §2, §3, §4, §5

[4] = Hydrogen sulfide selectivity test: decomplexation by NaClO4; format: physicochemical; conditions: NaClO4 (100 μM); 37° C. for 15 minutes
Method: as §1, §2, §3, §4, §5

[5] = Hydrogen sulfide selectivity test: decomplexation by Kl; format: physicochemical; conditions: 100 μM or KI (1 mM), 37° C. for 15 minutes
Method: as §1, §2, §3, §4, §5

[6] = Hydrogen sulfide selectivity test: decomplexation by NaNO2; format: physicochemical; conditions: NaNO2 (100 µM); 37° C. for 15 minutes
Method: as §1, §2, §3, §4, §5

[7] = Hydrogen sulfide selectivity test: decomplexation by ME; format: physicochemical; conditions: 2-mercaptoethanol; 100 μM or (2-ME, 10 mM); 37° C. for 15 minutes
Method: as §1, §2, §3, §4, §5

[8] = Hydrogen sulfide selectivity test: decomplexation by NaN3; format: physicochemical; conditions: NaN3 (100 μM); 37° C. for 15 minutes
Method: as §1, §2, §3, §4, §5

[9] = Hydrogen sulfide selectivity test: decomplexation by Hcys; format: physicochemical; conditions: 100 μM or L-Hcys (10 mM), 37° C. for 15 minutes
Method: as §1, §2, §3, §4, §5

[10] = Hydrogen sulfide selectivity test: decomplexation by DTT; format: physicochemical; conditions: DL-dithiothretitol (DTT, 100 μM); 37° C. for 15 minutes
Method: as §1, §2, §3, §4, §5

[11] = Test of hydrogen sulfide detection sensitivity (% decomplexation with NaHS, radio-TLC); format: physicochemical; conditions: for % decomplexation: 37° C. for 15 minutes; for % decomplexation against 100 μM NaHS solution: Table 3
Method: To measure hydrogen sulfide detection sensitivity of the ^64Cu-labeled complex compound according to the present disclosure, the following experiment was performed.
About 45 μCi-55 μCi of ^64Cu-labeled complex compound (250 μL of triple distilled water) was mixed with various concentrations of NaHS solution (250 µL of triple distilled water), and stirred at 37° C. for 15 minutes (a total volume used in the reaction was equally 500 μL). After completion of the reaction, the resulting products were strongly stirred to mix appropriately.
Formation of copper sulfide (^64CuS) was confirmed by quantification of % decomplexation by using a radio-TLC scanner, and results are shown in the following Tables 2 and 3.

Paw inflammation model = format: in vivo, Balb/c or ICR mice
Method: (1) Paw Pain Inflammation Model
A small amount of CFA (complete Freund's adjuvant) or formalin was injected into only one paw (right) of the hind paws of Balb/c or ICR mice to establish inflammation models. 1 day after injection of the inflammation inducer, the mice were used in imaging or other in vivo experiments.
It is a known fact that inflamed sites show high concentrations of hydrogen sulfide.
Nuclear medicine imaging was measured by using an Inveon PET/CT system of Siemens Healthcare, and optical imaging was measured by using IVIS spectrum CT equipment. Cherenkov radiation emitted from ^64Cu was measured by using a highly sensitive CCD (charge-coupled device) camera.
Imaging was measured for 1 minute to 5 minutes, and a radiation dose was about 50 μCi to 2000 μCi, and photographs were variously taken as needed, such as immediately after first injection, at 1 hour, 4 hours, and 24 hours later.

[12] = Hydrogen sulfide selectivity test: decomplexation by NaHCO3; format: physicochemical; conditions: NaHCO3 (100 μM); 37° C. for 15 minutes
Method: as §1, §2, §3, §4, §5

[13] = Hydrogen sulfide selectivity test: decomplexation by Cys; format: physicochemical; conditions: 100 μM or L-Cys (1 mM), 37° C. for 15 minutes
Method: as §1, §2, §3, §4, §5

[14] = Hydrogen sulfide selectivity test: decomplexation by L-AsA; format: physicochemical; conditions: L-ascorbic acid; 100 μM or (L-AsA, 10 mM); 37° C. for 15 minutes
Method: as §1, §2, §3, §4, §5

[15] = Test of hydrogen sulfide detection over time (^64CuS formation, radio-TLC); format: physicochemical; parameters: unit not given here; conditions: 100 μM NaHS, 37° C.
Method: To examine reactivity of the ^64Cu-labeled complex compound according to the present disclosure over time, the following experiment was performed.
A detailed experimental method is as follows.
About 45 μCi-50 μCi of ^64Cu-labeled complex compound (250 μL of triple distilled water) was mixed with 100 μM of NaHS solution ([…] of triple distilled water), and stirred at 37° C. for 15 minutes. Formation of copper sulfide (^64CuS) was quantified by using a radio-TLC scanner.

[16] = Hydrogen sulfide selectivity test: decomplexation by GSH; format: physicochemical; conditions: 100 μM or GSH (10 mM), 37° C. for 15 minutes
Method: as §1, §2, §3, §4, §5

[17] = Hydrogen sulfide selectivity test: decomplexation by NaOAc; format: physicochemical; conditions: 100 μM or (1 mM), 37° C. for 15 minutes
Method: as §1, §2, §3, §4, §5

[18] = Hydrogen sulfide selectivity test: decomplexation by Na2S2O3; format: physicochemical; conditions: 100 μM or (1 mM), 37° C. for 15 minutes
Method: as §1, §2, §3, §4, §5

[19] = Hydrogen sulfide selectivity test: decomplexation by Na2S2O5; format: physicochemical; conditions: 100 μM or (1 mM), 37° C. for 15 minutes
Method: as §1, §2, §3, §4, §5

[20] = test system: Myocardial infarction model; test: Imaging study in myocardial infarction model (PET); format: in vivo, Sprague-Dawley rats; conditions: PET imaging after injection
Excerpt: (2) Myocardial Infarction Model
A myocardial infarction model was established by using Sprague-Dawley rats (12-week-old or older, about 250 g). 2 days later after induction of myocardial infarction by occlusion of the coronary arteries in the heart, the rats were used in imaging tests. It is a known fact that myocardial infarction sites show high concentrations of hydrogen sulfide.
It is known that myocardial infarction sites show high concentrations of hydrogen sulfide. Thus, after induction of myocardial infarction by coronary artery occlusion in rats, 50 μCi-900 μCi of the ^64Cu-labeled complex compound was injected via the tails of the rats, and uptake in the myocardial infarction site was examined over time by PET imaging.
36 hours after establishment of the myocardial infarction model, 730 μCi of the radioisotope-labeled complex compound of the present disclosure was injected and nuclear medicine imaging was performed. 2 days later, […] of FDG was injected into the same rat, and then FDG-PET images were obtained. Results are shown in FIGS. 15 to 17 (in the nuclear medicine imaging, the upper image represents a transverse image, and the lower image represents a coronal image).

SMILES: C1C[N]2CC[N]3CC[N]4CC[N](C1)[64Cu]234 [Example 16, ^64Cu-labeled cyclam]
- Decomplexation [%] [1]: 0.6 ± 0.0%
- Decomplexation [%] [2]: 0.7 ± 0.2%
- Decomplexation [%] [3]: 0.7 ± 0.0%
- Decomplexation [%] [4]: 0.6 ± 0.1%
- Decomplexation [%] [5]: 0.7 ± 0.0%
- Decomplexation [%] [6]: 0.5 ± 0.1%
- Decomplexation [%] [7]: 0.5 ± 0.6%
- Decomplexation [%] [8]: 0.7 ± 0.1%
- Decomplexation [%] [9]: 0.7 ± 0.0%
- Decomplexation [%] [10]: 0.8 ± 0.0%
- % decomplexation ([11]; NaHS 0 μM): 0%
- % decomplexation ([11]; NaHS 1 μM): 0%
- % decomplexation ([11]; NaHS 10 μM): 0%
- % decomplexation ([11]; NaHS 15 μM): 0%
- % decomplexation ([11]; NaHS 20 μM): 0%
- % decomplexation ([11]; NaHS 50 μM): 1.3%
- % decomplexation ([11]; NaHS 100 μM): 10.5%
- difference between inflamed and normal paws (Paw inflammation model; mouse, in vivo): no obvious difference in the inflamed and normal paws
- uptake compared to injection of the same quantity of ^64Cu-labeled cyclen of Example 1 (Paw inflammation model; mouse, in vivo): low uptake
- Decomplexation [%] [12]: 0.5 ± 0.1%
- Decomplexation [%] [13]: 0.7 ± 0.2%
- Decomplexation [%] [14]: 0.7 ± 0.2%
- Formation of copper sulfide (^64CuS) over time ([15]; 10 sec): 0
- Formation of copper sulfide (^64CuS) over time ([15]; 30 sec): 0
- Formation of copper sulfide (^64CuS) over time ([15]; 60 sec): 0
- Formation of copper sulfide (^64CuS) over time ([15]; 5 min): 3
- Formation of copper sulfide (^64CuS) over time ([15]; 10 min): 5
- Formation of copper sulfide (^64CuS) over time ([15]; 15 min): 10
- Decomplexation [%] [16]: 0.8 ± 0.2%
- Decomplexation [%] [17]: 0.8 ± 0.0%
- Decomplexation [%] [18]: 0.8 ± 0.1%
- Decomplexation [%] [19]: 0.5 ± 0.0%
- uptake / visualisation of the myocardial infarction site [20]: no specific uptake was observed in the heart

SMILES: OC[C@H]1O[C@@H](O)[C@H]([18F])[C@@H](O)[C@@H]1O [FDG, reference compound]
- uptake / visualisation of the myocardial infarction site [20]: uptake did not occur in the myocardial infarction site

SMILES: C1CNCCN2CCCNCCN(C1)CCC2 [Example 25]
- % decomplexation against 100 μM NaHS solution [11]: 0%

SMILES: CN1CCCNCCNCCNCC1.[64Cu+2] [Example 24]
- % decomplexation against 100 μM NaHS solution [11]: 0%

SMILES: CC1CC[N]2C3CCCCC3[N]3C(C)CC[N]4C5CCCCC5[N]1[64Cu]423 (stereo not shown) [Example 9]
- uptake in inflamed paw versus opposite paw (Paw inflammation model; optical and nuclear medicine imaging performed 2 hours later): higher uptakes
